Each structure is given as a SMILES string.

From US20220257523A1, “COMPOSITE DRUG PARTICLES AND USES THEREOF” (The Regents of the University of Michigan, priority 2019, published 2022) come the findings set out here.

Data set [1] concerns primary subcutaneous human adipocytes. The data set can be described thus: Adipocyte lysis assay (MTS viability). The data set is classed as cell-based. On the procedure:
The capability of the particle formulation to kill fat cells was tested by incubating them with primary subcutaneous human adipocytes. The primary subcutaneous human adipocytes cultured in 96-well plates were purchased from Zen-Bio (Research Triangle, NC). Upon arrival, 150 μl of the media was removed from each well, and the cells were incubated at 37° C. and 5% CO2. For the lysis assays, 150 μl of the salt solution or particle suspension of the known concentration in FBS free RPMI-medium were incubated for a known time-point. Afterward, the treatment solution was aspirated, the cells were washed with warm PBS, and 150 μl of a 1:25 dilution in 1×PBS of MTS assay cell titer (purchased from Promega Corporation, Madison, Wis.) was added to each well. Plates were incubated at 37° C. and 5% CO2 for 3 hr until the appearance of the orange color in the untreated control wells and the absorbance was measured at 490 nm. The cell viability was quantified via subtracting the background cell titer absorbance from the absorbance of the desired point and dividing it by the average signal of the untreated cells after subtracting the background.

Data set [2] relates to inguinal fat pads of genetically obese mice. The data set can be described thus: In vivo lipolysis after subcutaneous injection into inguinal fat pad. Details: species or system mice (B6.Cg-Lep^ob/J). On the procedure: Animal studies were conducted following the National Institute of Health guidelines for the care and use of laboratory animals and approved by the Institutional Animal Care and Use Committee (IACUC) of the University of Michigan. 8-10 week old female genetically obese (B6.Cg-Lep^ob/J) mice purchased from The Jackson Laboratory were used. The in vivo trials were replicated for 3 animals. All the animals had the same age and the average weight of the animals in each group were matched prior to the initiation of the study.
In vivo lipolysis assays were performed via subcutaneous injection of rhodamine-loaded deoxycholate microparticles into the inguinal fat pads of genetically obese mice alongside the salt solution and vehicle control. Genetically obese mice were anesthetized using isoflurane, shaved, and subcutaneously injected with 100 μL of the suspension of rhodamine-loaded deoxycholate particles or the solution of deoxycholate salt in saline (25 mg/mL) or vehicle control into their right inguinal fat pad. 100 μL of pure saline was injected into the left fat pad of the animals as the control. The weight and appearance of the animals was tracked over the course of two weeks. One group of the animals received a second dosage of particles on Day 7. After 14 days, the animals were euthanized, the right and left fat pad of the animals were removed, weighed, and fixed in 10% formalin solution overnight. Histology slides of the samples were prepared via paraffin embedding and standard hematoxylin and eosin staining. The histology slides were analyzed by blindfolded physicians and the digital scans were analyzed using QuPath software.

Data set [3] concerns Human umbilical vein endothelial cells (HUVECs). The data set can be described thus: HUVEC cell lysis assay (MTS viability).
Procedure: After the desired time-point, the treatment solution/suspension was removed from the wells, the cells were washed with warm 1X phosphate buffered saline (PBS) and incubated with 1 ml of the 1:25 dilution of MTS assay cell titer (Promega, WI) in 1×PBS at 37° C. and 5% CO2 for 2 hr until the appearance of the orange color in the untreated control wells. The absorbance was then measured at 490 nm, and each condition was repeated in triplicate. The percentage of the cell viability was quantified via subtracting the background cell titer absorbance from the absorbance of the desired point and dividing it by the average signal of the untreated cells after subtracting the background.

For the compound `C[C@H](CCC(=O)[O-])[C@H]1CC[C@H]2[C@@H]3[C@H](O)C[C@@H]4C[C@H](O)CC[C@]4(C)[C@H]3C[C@H](O)[C@]12C.[Na+]` [sodium cholate], the cells killed result in data set [1] (1% solution in RPMI media) is reported as “all the cells”.

Take `C[C@H](CCC(=O)[O-])[C@H]1CC[C@H]2[C@@H]3CC[C@@H]4C[C@H](O)CC[C@]4(C)[C@H]3C[C@H](O)[C@]12C.[Na+]` [sodium deoxycholate]: the “concentration enough to kill the fat cells” value in data set [1] (RPMI media, within 1 hr) is on record as “higher than 0.05%”. Also, the “time at which an ulcer developed in all of the animals” value in data set [2] (100 μL of 25 mg/mL in saline s.c. into right inguinal fat pad) is reported as 7-9 days post-injection. The “skin bruising and inflammation at the injection site” value in data set [2] (100 μL of 25 mg/mL in saline s.c. into right inguinal fat pad, particles rhodamine-loaded, one or two dosages) is “severe bruising and inflammation”. Moreover, in data set [2] (at euthanasia 14 days post-injection, right versus left fat pad), the “local fat loss in the injected fat pad” value is “visual evidence of local fat loss”. Moreover, the “weight of the animals during the lipolytic treatment” value in data set [2] (over two weeks) was “No significant change”. Further, in data set [2] (s.c. injection into right inguinal fat pad), the “histology (H&E) of the right fat pad, evidence of fat lysis” value was “Crown-like structures and significant leukocyte infiltration”. For the same compound, the cells killed in data set [3] (0.01% solution in media, 1 hr) is recorded as about 40%; in data set [3] (0.2% salt solution in media, 1 hr) it was “approximately 95%”. Also, the cells still alive entry in data set [3] (0.1% salt in 5% BSA, 3 hr) was “around 25%”. Moreover, the cell death result in data set [3] (0.1% salt in media, 3 hr) was “nearly all the cells”. In addition, the cells lysed entry in data set [3] (concentrations higher than 0.2%, 1 hr) is on record as “all the cells”.
